From PubChem BioAssay AID489010 (Southern Research Specialized Biocontainment Screening …, 2010)

system: M. tuberculosis H37Rv growth inhibition; assay: M. tuberculosis H37Rv growth inhibition, dose response, strain H37Rv (AID 489010); conditions: measured here: H37Rv growth IC50

SMILES | IC50 [µM]
Cc1cc(C)c(S(=O)(=O)/N=C2\C=C(Nc3ccc(C(=O)O)cc3)C(=O)c3ccccc32)c(C)c1 | > 100
CC(C)c1nnc(NC(=O)c2nc(S(=O)(=O)Cc3ccc(F)cc3)ncc2Cl)s1 | 53.8
COc1ccc(N(C(=O)CCl)C(C(=O)NCCc2ccccc2)c2cccs2)cc1 (stereo not drawn) | 7.8
O=C(NC1=C(NC2CCS(=O)(=O)C2)C(=O)c2ccccc2C1=O)c1ccccc1 (stereo not drawn) | 50.7
CC(NC(=O)COC(=O)c1cc(NS(=O)(=O)c2ccc(Cl)c([N+](=O)[O-])c2)ccc1O)C1CC2CCC1C2 (stereo not drawn) | 52.1
Cc1ccc(CS(=O)(=O)c2ncc(Cl)c(C(=O)Nc3nnc(C(C)C)s3)n2)cc1 | 53.5
COc1cc(NCCCCCCCN)c2ncccc2c1 | 36.3
Cc1ccc(Sc2ccc(NC(=O)CCl)cc2)c(C)c1 | 17.7
Cc1cc(C)cc(Cn2ncc(Cl)c(Cl)c2=O)c1 | 11.7
O=C(CCl)Nc1cn(-c2ccccc2)nc1-c1ccc(F)cc1 | < 0.2
Cc1cc(Br)c2c(c1)/C(=C/C(=O)c1cccs1)C(=O)N2 | 11.7
CCC(C)[C@@H](NC(=O)OC(C)(C)C)c1nnc(S(=O)(=O)Cc2cccc(C)c2)o1 (stereo partly drawn) | 31.9
Clc1ccc(-n2nnnc2Sc2ncnc3sccc23)cc1 | 5.98
CC(=O)n1cc(N(C(=O)CCl)c2ccccc2)c2ccccc21 | 2.14
O=C(Cc1ccccc1)c1c[nH]c(C(=O)C(Cl)(Cl)Cl)c1 | 93.8
Cc1oc2c(c1C(=O)NCc1cccnc1)C(=O)c1ccccc1C2=O | < 0.2
COC(=O)c1sc(-c2ccc(C(C)(C)C)cc2)cc1NC(=O)/C=C/C(=O)O | 19.1
Cc1ccc(Sc2ccc(NC(=O)CCl)cc2)cc1C | 14.4
CCn1nc(/C=C/c2ccccc2)nc2c(=O)n(C)c(=O)nc1-2 | 6.39
Cn1nc(-c2ccc(Cl)cc2)nc2c(=O)n(C)c(=O)nc1-2 | 6.35
COc1cccc(N(C(=O)CCl)C(C(=O)NCCc2ccccc2)c2cccs2)c1 (stereo not drawn) | 19.1
Cc1c(/C=N/Nc2nc3ccccc3[nH]2)c2ccccc2n1C | 9.5
Cc1ccccc1-n1ncc2c([N+](=O)[O-])cc([N+](=O)[O-])cc21 | 1.01
CC(C)(C)C1CCc2sc(C(=O)NNC(=O)CCl)cc2C1 (stereo not drawn) | 6.29
C=CCOc1ccccc1CN(C(=O)CCl)c1ccc2c(c1)OCO2 | 1.64
Cn1nc(-c2ccccn2)nc2c(=O)n(C)c(=O)nc1-2 | 10.1
CC(=O)N(Cc1ccc(F)cc1)C1=C(NCCc2ccccc2)C(=O)c2ccccc2C1=O | 0.74

SMILES | IC50 [µM]
O=C(OCn1ncc(Cl)c(Cl)c1=O)c1cccc(C(F)(F)F)c1 | 44.9
Cc1ccc(N(NC(=O)C(O)(c2ccccc2)c2ccccc2)C(=O)CCl)cc1 | 12
COc1cc2c(cc1OC)-c1c(OC)c(OC)cc3c1C(C2)N(C)CC3 (stereo not drawn) | 25.8
O=C(CCl)N(c1ccc(Cl)cc1)c1c[nH]c2ccccc12 | 1.91
COc1ccc(C(=O)c2c(C(F)(F)F)oc3c2C(=O)c2ccccc2C3=O)cc1OC | 9.48
O=C(CCl)N1c2ccccc2OCC1c1ccccc1 (stereo not drawn) | 1.69
CC(C)(C)c1csc(Sc2ccc([N+](=O)[O-])cn2)n1 | 51
CC1=NNC(=O)C1Cc1c(Cl)cccc1Cl (stereo not drawn) | 46.2
O=C(NC(NC(=S)Nc1ccc(Cl)cc1Cl)C(Cl)(Cl)Cl)c1cccc([N+](=O)[O-])c1 (stereo not drawn) | 9.33
Cn1c(O)c(C2=NN(C(=O)CCl)C(c3ccccc3)C2)c(=O)n(C)c1=O (stereo not drawn) | 82.7
O=C(N/N=C/c1c(O)n(C2CCCCC2)c(=S)[nH]c1=O)c1ccccc1O | > 100
COc1ccc2nc(C)cc(Sc3nc4ccccc4s3)c2c1 | 42.3
C(=N\Nc1nncc2ccccc12)/c1ccccn1 | 15.9
CSc1nnc(NC(=O)c2nc(S(=O)(=O)Cc3cccc(C)c3)ncc2Cl)s1 | 23.8
CSc1nnc(NC(=O)c2nc(S(=O)(=O)Cc3ccccc3F)ncc2Cl)s1 | 41.3
CN(C1=C(NC(=O)c2ccccc2)C(=O)c2ccccc2C1=O)C1CCS(=O)(=O)C1 (stereo not drawn) | 88.6
Cc1sc2ncnc(Sc3nnnn3-c3ccccc3)c2c1C | 40.5
C/C(=N\NC(=O)c1ccncc1)c1cc2ccccc2oc1=O | 0.29
Cc1ccc(C)c(Sc2ccc(NC(=O)CCl)cc2)c1 | 22.5
Cc1ccc2c(c1)c1c3n2CCN(C(=O)CCl)C3CCC1 (stereo not drawn) | 1.39
Cc1[nH]n(-c2ccccc2)c(=O)c1C(c1cccc([N+](=O)[O-])c1)c1c(C)[nH]n(-c2ccccc2)c1=O | > 100
Cc1nn(-c2ccccc2)c(Cl)c1CN(C(=O)CCl)c1cccc2ccccc12 | 21.7
CC(=O)n1cc(N(C(=O)CCl)c2ccc([N+](=O)[O-])cc2)c2ccccc21 | 3.24
O=C(OCn1ncc(Cl)c(Cl)c1=O)c1ccccc1Cl | 22.1
Cc1[nH]n(-c2ccccc2)c(=O)c1C(C[N+](=O)[O-])c1ccc(F)cc1 (stereo not drawn) | 19.6
Cc1ccc(C(=O)Oc2ccc([N+](=O)[O-])cc2)cc1S(=O)(=O)N1CCCCCC1 | 46.6
